PubChem BioAssay AID1745844 (Carcinogenic Potency Database (CPDB), 2022)
The source made the active and inactive calls. The rule behind the calls is not given here.

Tested on: rodent lifetime carcinogenesis bioassay, tumor incidence TD50
Test: chronic cancer bioassays in animals – CPDB, compiled studies (AID 1745844)

Compound `CN=[N+](C)[O-]` has a TD50 (rat, strain Fischer 344, males, by gavage, site: Zymbal's gland, lesion: carcinoma, dosed 30 weeks, study length 65 weeks) of 0.204 mg/kg/day, a TD50 (rat, strain Fischer 344, males, by gavage, site: colon, lesion: malignant tumor, dosed 30 weeks, study length 65 weeks) of 0.171 mg/kg/day and a TD50 (rat, strain Fischer 344, males, by gavage, site: colon, lesion: one or several types, types not named, dosed 30 weeks, study length 65 weeks) of 0.102 mg/kg/day. For the same compound, the TD50 (rat, strain Fischer 344, males, by gavage, site: kidney, lesion: mesenchymal neoplasm, dosed 30 weeks, study length 65 weeks) was 0.3 mg/kg/day, the carcinogen call (rat, strain Fischer 344, males, by gavage, site: liver, lesion: one or several types, types not named, dosed 30 weeks, study length 65 weeks) was “negative (inactive)” and the TD50 (rat, strain Fischer 344, males, in drinking water, site: colon, lesion: several types, types named in the paper, dosed 30 weeks, study length 100 weeks) was 0.585 mg/kg/day. The TD50 (rat, strain Fischer 344, males, in drinking water, site: kidney, lesion: several types, types named in the paper, dosed 30 weeks, study length 100 weeks) was 0.388 mg/kg/day, the TD50 (rat, strain Fischer 344, males, in drinking water, site: liver, lesion: hemangiosarcoma, dosed 30 weeks, study length 100 weeks) was 0.982 mg/kg/day and the TD50 (rat, strain Fischer 344, males, in drinking water, site: liver, lesion: hepatocellular carcinoma, dosed 30 weeks, study length 100 weeks) was 0.0677 mg/kg/day. It also gave a TD50 (rat, strain Fischer 344, males, in drinking water, site: liver, lesion: neoplastic nodule, dosed 30 weeks, study length 100 weeks) of 28.6 mg/kg/day and a TD50 (rat, strain Fischer 344, males, in drinking water, site: liver, lesion: several types, types named in the paper, dosed 30 weeks, study length 100 weeks) of 0.0302 mg/kg/day.
Work on `NNCCc1ccccc1` yielded a TD50 (mouse, strain Swiss albino, females, in drinking water, site: blood vessels, lesion: angiosarcoma, dosed 93 weeks, study length 93 weeks) of 20.4 mg/kg/day, a TD50 (mouse, strain Swiss albino, females, in drinking water, site: blood vessels, lesion: several types, types named in the paper, dosed 93 weeks, study length 93 weeks) of 14.6 mg/kg/day and a TD50 (mouse, strain Swiss albino, females, in drinking water, site: fat, lesion: angiosarcoma, dosed 93 weeks, study length 93 weeks) of 23.7 mg/kg/day. The TD50 (mouse, strain Swiss albino, females, in drinking water, site: liver, lesion: several types, types named in the paper, dosed 93 weeks, study length 93 weeks) was 278 mg/kg/day, the TD50 (mouse, strain Swiss albino, females, in drinking water, site: lung, lesion: adenoma, dosed 93 weeks, study length 93 weeks) was 25.8 mg/kg/day and the TD50 (mouse, strain Swiss albino, females, in drinking water, site: lung, lesion: angiosarcoma, dosed 93 weeks, study length 93 weeks) was 123 mg/kg/day. It also gave a TD50 (mouse, strain Swiss albino, females, in drinking water, site: lung, lesion: several types, types named in the paper, dosed 93 weeks, study length 93 weeks) of 27.5 mg/kg/day, a TD50 (mouse, strain Swiss albino, females, in drinking water, site: muscle, lesion: angiosarcoma, dosed 93 weeks, study length 93 weeks) of 21.7 mg/kg/day and a TD50 (mouse, strain Swiss albino, females, in drinking water, site: subcutaneous tissue, lesion: angiosarcoma, dosed 93 weeks, study length 93 weeks) of 19.9 mg/kg/day. The carcinogen call (mouse, strain Swiss albino, males, in drinking water, site: liver, lesion: several types, types named in the paper, dosed 99 weeks, study length 99 weeks) was “negative (inactive)”, the TD50 (mouse, strain Swiss albino, males, in drinking water, site: lung, lesion: adenoma, dosed 99 weeks, study length 99 weeks) was 30 mg/kg/day (inactive) and the TD50 (mouse, strain Swiss albino, males, in drinking water, site: lung, lesion: several types, types named in the paper, dosed 99 weeks, study length 99 weeks) was 33.1 mg/kg/day (inactive).
`C[C@H]1CCCCN1N=O` showed a TD50 (rat, strain Sprague-Dawley, both sexes, in drinking water, site: any site (literature study), lesion: malignant tumor, dosed 104 weeks, study length 104 weeks) of 13.2 mg/kg/day, a TD50 (rat, strain Sprague-Dawley, both sexes, in drinking water, site: liver, lesion: liver-cell carcinoma, dosed 104 weeks, study length 104 weeks) of 61.2 mg/kg/day and a TD50 (rat, strain Sprague-Dawley, both sexes, in drinking water, site: liver, lesion: several types, types named in the paper, dosed 104 weeks, study length 104 weeks) of 49.4 mg/kg/day. For the same compound, the TD50 (rat, strain Sprague-Dawley, both sexes, in drinking water, site: several sites, sites named in the paper, lesion: ependymoblastoma, dosed 104 weeks, study length 104 weeks) was 34.5 mg/kg/day.
